Measured values from patent US20240417410A1, “TRICYCLIC COMPOUNDS FOR THE TREATMENT OF CANCER” (Hoffmann-La Roche Inc., priority 2023, published 2024).
Read-outs that look alike come from different tables or passages of the source.

What was measured:
Experiment in all cases: Cell proliferation, CTG 3D, 7 d
Assay type in all cases: cell-based
[1] = tested on: A549; conditions: Homo sapiens
Procedure: (§1) On Day-1, cells were plated in 384-well round-bottom ultra-low adhesion plates (cat. Corning 3830, with cell density adjusted according to Table 3. The assay plate was then centrifuged at 1000 rpm for 1 minute to ensure even distribution of cells. The plate was incubated at 37° C. in a 5% CO2 atmosphere (It is worth noting that for SW1271 cell plate, it needs to be incubated in an incubator without additional CO2).
(§2) On Day 0, Example 24 or A122 was added to each well using a Tecan HP D300E dispenser, with a 3-fold dilution across 9 doses. The final concentration of DMSO was normalized to 0.2%. The assay plate was then centrifuged at 1000 rpm for 1 minute and incubated for 7 days.
(§3) On Day 7, CellTiter-Glo (CTG) 3D reagent (Promega G9683) was dispensed into each well of a 384-well plate using a multi-drop dispenser (Thermo Scientific 66413). A liquid handling automation workstation (Bravo with a 384-well head) was used to mix the CTG reagents. Plates were left on a shaker for 30 minutes at 450 rpm, shielded from light.
(§4) For data analysis, the XL-fit software (Supplier: ID Business Solutions Ltd., Software version: XL fit 5.0) was utilized. The percentage of inhibition was calculated using the formula: Inhibition %=(Max-Sample value)/(Max-Min)×100. Curve fitting was performed as follows: For complete dose-response curves, the relative IC50 was reported from the fit. For incomplete curves, if minimal inhibition was greater than 50%, an IC50 less than the lowest compound concentration was reported. If minimal inhibition was between 20% and 50%, the bottom was locked at 0% and the IC50 was reported. If maximal inhibition was less than 50%, an IC50 greater than the highest compound concentration was reported.

[2] = tested on: AsPc-1; conditions: Homo sapiens, ASPC1; AsPc-1, KRAS (G12D)
Procedure: as §1, §2, §3, §4

[3] = tested on: COR-L23; conditions: Homo sapiens; COR-L23, KRAS (G12V)
Procedure: as §1, §2, §3, §4

[4] = tested on: DV-90; conditions: Homo sapiens
Procedure: as §1, §2, §3, §4

[5] = tested on: H9; conditions: Homo sapiens
Procedure: as §1, §2, §3, §4

[6] = tested on: KLE; conditions: Homo sapiens, KRAS (WT ampl)
Procedure: as §1, §2, §3, §4

[7] = tested on: KMS-28BM; conditions: Homo sapiens
Procedure: as §1, §2, §3, §4

[8] = tested on: KP-2; conditions: Homo sapiens
Procedure: as §1, §2, §3, §4

[9] = tested on: KU1919; conditions: Homo sapiens, KU-19-19
Procedure: as §1, §2, §3, §4

[10] = tested on: LU99; conditions: Homo sapiens, Lu-99; LU99, KRAS (G12C)
Procedure: as §1, §2, §3, §4

[11] = tested on: MDA-MB-134-VI; conditions: Homo sapiens
Procedure: as §1, §2, §3, §4

[12] = tested on: NCI-H1573; conditions: Homo sapiens
Procedure: as §1, §2, §3, §4

[13] = tested on: NCI-H1876; conditions: Homo sapiens
Procedure: as §1, §2, §3, §4

[14] = tested on: NCI-H358; conditions: Homo sapiens; NCI-H358, KRAS (G12C)
Procedure: as §1, §2, §3, §4

[15] = tested on: NCI-H441; conditions: Homo sapiens; NCI-H441, KRAS (G12V)
Procedure: as §1, §2, §3, §4

[16] = tested on: NCI-H929; conditions: Homo sapiens
Procedure: as §1, §2, §3, §4

[17] = tested on: NOMO-1; conditions: Homo sapiens
Procedure: as §1, §2, §3, §4

[18] = tested on: PK-59; conditions: Homo sapiens; PK-59, KRAS (G12D)
Procedure: as §1, §2, §3, §4

[19] = tested on: RCM-1; conditions: Homo sapiens; RCM-1, KRAS (G12V)
Procedure: as §1, §2, §3, §4

[20] = tested on: RD; conditions: Homo sapiens
Procedure: as §1, §2, §3, §4

[21] = tested on: RKN; conditions: Homo sapiens, KRAS (G12V)
Procedure: as §1, §2, §3, §4

[22] = tested on: RPMI8226; conditions: Homo sapiens, RPMI-8226
Procedure: as §1, §2, §3, §4

[23] = tested on: SW 1088; conditions: Homo sapiens, SW1088
Procedure: as §1, §2, §3, §4

[24] = tested on: SW 948; conditions: Homo sapiens, SW948
Procedure: as §1, §2, §3, §4

[25] = tested on: THP-1; conditions: Homo sapiens; THP-1, NRAS (p.G12D)
Procedure: as §1, §2, §3, §4

[26] = tested on: TOV-21G; conditions: Homo sapiens, TOV21G
Procedure: as §1, §2, §3, §4

[27] = tested on: Toledo; conditions: Homo sapiens
Procedure: as §1, §2, §3, §4

CO[C@@H](C)c1ncc(N2CCN(C)CC2)cc1-c1c2c3cc(cc4c3n1CCC4)-c1csc(n1)C[C@H](NC(=O)[C@H]1[C@H](C)[C@@H]1C)C(=O)N1CCC[C@H](N1)C(=O)OCC(C)(C)C2 (atropisomer, axis not shown; (M)) [Example 24, (1r,2R,3S)-N-[(7S,13S)-(20M)-20-[2-[(1S)-1-methoxyethyl]-5-(4-methylpiperazin-1-yl)-3-pyridyl]-17,17-dimethyl-8,14-dioxo-15-oxa-4-thia-9,21,30,31-tetrazahexacyclo[23.3.1.1^2,5.1^9,13.0^19,27.0^21,26]hentriaconta-1 (28),2,5 (31), 19,25 (29),26-hexaen-7-yl]-2,3-dimethyl-cyclopropanecarboxamide]
IC50 ([1]; A549, KRAS (G12S), read-out: IC50): 720 pM | IC50 [2]: 650 pM | IC50 [3]: 530 pM | IC50 ([4]; DV-90, KRAS (G13D), read-out: IC50): 3900 pM | IC50 ([5]; H9, NRAS (p.Q61K), read-out: IC50): 720 pM | IC50 [6]: 100000 pM | IC50 ([7]; KRAS (G12A), read-out: IC50): 630 pM | IC50 ([8]; KP-2, KRAS (G12R), read-out: IC50): 350 pM | IC50 ([9]; KU1919, NRAS (p.Q61R), read-out: IC50): 2200 pM | IC50 [10]: 590 pM | IC50 ([11]; KRAS (G12R), read-out: IC50): 1500 pM | IC50 ([12]; NCI-H1573, KRAS (G12A), read-out: IC50): 820 pM | IC50 ([13]; NCI-H1876, NRAS (p.Q61K), read-out: IC50): 3100 pM | IC50 [14]: 120 pM | IC50 [15]: 250 pM | IC50 ([16]; NCI-H929, NRAS (p.G13D), read-out: IC50): 7300 pM | IC50 ([17]; NOMO-1, KRAS (G13D), read-out: IC50): 470 pM | IC50 [18]: 440 pM | IC50 [19]: 2200 pM | IC50 ([20]; NRAS (p.Q61H), read-out: IC50): 360 pM | IC50 [21]: 45 pM | IC50 ([22]; RPMI8226, KRAS (G12A), read-out: IC50): 380 pM | IC50 ([23]; SW 1088, NRAS (p.Q61K), read-out: IC50): 750 pM | IC50 ([24]; SW 948, KRAS (Q61L), read-out: IC50): 2900 pM | IC50 [25]: 260 pM | IC50 ([26]; TOV-21G, KRAS (G13C), read-out: IC50): 4900 pM | IC50 ([27]; KRAS (G13D), read-out: IC50): 100000 pM

CCn1c(-c2cc(N3CCN(C)CC3)cnc2[C@H](C)OC)c2c3cc(ccc31)-c1csc(n1)C[C@H](NC(=O)[C@H]1C[C@@H]1C)C(=O)N1CCC[C@H](N1)C(=O)OCC(C)(C)O2 [Example A122, reference compound]
IC50 ([1]; A549): 1100 pM | IC50 [2]: 550 pM | IC50 [3]: 780 pM | IC50 ([4]; DV-90): 4700 pM | IC50 ([5]; H9): 1600 pM | IC50 [6]: 100000 pM | IC50 [7]: 880 pM | IC50 [8]: 430 pM | IC50 [9]: 2800 pM | IC50 [10]: 910 pM | IC50 [11]: 2600 pM | IC50 ([12]; NCI-H1573): 1200 pM | IC50 [13]: 3600 pM | IC50 [14]: 270 pM | IC50 [15]: 490 pM | IC50 ([16]; NCI-H929): 8700 pM | IC50 ([17]; NOMO-1): 860 pM | IC50 [18]: 620 pM | IC50 [19]: 6500 pM | IC50 [20]: 700 pM | IC50 [21]: 66 pM | IC50 [22]: 520 pM | IC50 [23]: 2600 pM | IC50 [24]: 8500 pM | IC50 [25]: 180 pM | IC50 [26]: 33000 pM | IC50 [27]: 100000 pM
